Laboratory results taken from PubChem BioAssay AID1259411 (Chemical Carcinogenesis Research Information System (CCRIS), 2018).
Activity calls are given as the source filed them. The rule behind the calls is not given here.

System: rodent carcinogenicity bioassays, tumor incidence
Experiment: CCRIS carcinogenicity studies
In short: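 NCI-built, expert-reviewed records of carcinogenicity and related test outcomes (mutagenicity, tumor promotion/inhibition) compiled from published and report sources, historical span 1985-2011, not updated.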

Nc1ccc(Cc2ccc(N)cc2)cc1
carcinogen call (Species: MOUSE, Strain/Sex: B6C3F1/FEMALE, Route: ORAL, Dose: 0, 0.015, 0.03% IN DIET FOR 103 WK (STUDY DURATION: 104 WK), Dose: 0, 0.015, 0.03% IN DIET FOR 103 WK (STUDY DURATION: 104 WK), Tumor Site: Type of Lesion: THYROID GLAND: FOLLICULAR ADENOMA, LIVER: HEPATOCELLULAR ADENOMA, LIVER: HEPATOCELLULAR CARCINOMA, Tumor Site: Type of Lesion: THYROID GLAND: FOLLICULAR ADENOMA, LIVER: HEPATOCELLULAR ADENOMA, LIVER: HEPATOCELLULAR CARCINOMA): active; positive
carcinogen call (Species: MOUSE, Strain/Sex: B6C3F1/FEMALE, Route: ORAL, Dose: 0, 150, 300 PPM IN DRINKING WATER, Dose: 0, 150, 300 PPM IN DRINKING WATER, Tumor Site: Type of Lesion: THYROID GLAND: FOLLICULAR CELL ADENOMA, CARCINOMA, LIVER: HEPATOCELLULAR ADENOMA, CARCINOMA, LYMPHATIC SYSTEM: MALIGNANT, Tumor Site: Type of Lesion: THYROID GLAND: FOLLICULAR CELL ADENOMA, CARCINOMA, LIVER: HEPATOCELLULAR ADENOMA, CARCINOMA, LYMPHATIC SYSTEM: MALIGNANT): active; positive
carcinogen call (Species: MOUSE, Strain/Sex: B6C3F1/MALE, Route: ORAL, Dose: 0, 0.015, 0.03% IN DIET FOR 103 WK (STUDY DURATION: 104 WK), Dose: 0, 0.015, 0.03% IN DIET FOR 103 WK (STUDY DURATION: 104 WK), Tumor Site: Type of Lesion: THYROID GLAND: FOLLICULAR ADENOMA, LIVER: HEPATOCELLULAR CARCINOMA): active; positive
carcinogen call (Species: MOUSE, Strain/Sex: B6C3F1/MALE, Route: ORAL, Dose: 0, 150, 300 PPM IN DRINKING WATER, Dose: 0, 150, 300 PPM IN DRINKING WATER, Tumor Site: Type of Lesion: THYROID GLAND: FOLLICULAR CELL ADENOMA, ADRENAL GLAND: PHEOCHROMOCYTOMA, LIVER: HEPATOCELLULAR ADENOMA, CARCINOMA, Tumor Site: Type of Lesion: THYROID GLAND: FOLLICULAR CELL ADENOMA, ADRENAL GLAND: PHEOCHROMOCYTOMA, LIVER: HEPATOCELLULAR ADENOMA, CARCINOMA): active; positive
carcinogen call (Species: RAT, Strain/Sex: F344/FEMALE, Route: ORAL, Dose: 0, 0.015, 0.03% IN DIET FOR 103 WK (STUDY DURATION: 104 WK), Dose: 0, 0.015, 0.03% IN DIET FOR 103 WK (STUDY DURATION: 104 WK), Tumor Site: Type of Lesion: THYROID GLAND: FOLLICULAR ADENOMA): active; positive
carcinogen call (Species: RAT, Strain/Sex: F344/FEMALE, Route: ORAL, Dose: 0, 150, 300 PPM IN DRINKING WATER, Dose: 0, 150, 300 PPM IN DRINKING WATER, Tumor Site: Type of Lesion: THYROID GLAND: FOLLICULAR CELL ADENOMA, CARCINOMA, C CELL ADENOMA, CARCINOMA): active; positive
carcinogen call (Species: RAT, Strain/Sex: F344/MALE, Route: ORAL, Dose: 0, 0.15, 0.03% IN DIET FOR 103 WK (STUDY DURATION: 104 WK), Dose: 0, 0.15, 0.03% IN DIET FOR 103 WK (STUDY DURATION: 104 WK), Tumor Site: Type of Lesion: THYROID GLAND: FOLLICULAR CARCINOMA, LIVER: NEOPLASTIC NODULE): active; positive
carcinogen call (Species: RAT, Strain/Sex: F344/MALE, Route: ORAL, Dose: 0, 150, 300 PPM IN DRINKING WATER, Dose: 0, 150, 300 PPM IN DRINKING WATER, Tumor Site: Type of Lesion: THYROID GLAND: FOLLICULAR CELL ADENOMA, CARCINOMA, LIVER: NEOPLASTIC NODULE): active; positive

CCCCCCN(N=O)C(N)=O
carcinogen call (Species: RAT, Strain/Sex: F344/FEMALE, Route: GAVAGE, Dose: 0, 17.5 MG/ML (TOTAL DOSE 0; 2 MMOL) IN 2 ML ETHYL ACETATE AND CORN OIL (1:2) 2/WK FOR 50 WK (STUDY DURATION: LIFETIME), Dose: 0, 17.5 MG/ML (TOTAL DOSE 0; 2 MMOL) IN 2 ML ETHYL ACETATE AND CORN OIL (1:2) 2/WK FOR 50 WK (STUDY DURATION: LIFETIME), Tumor Site: Type of Lesion: FORESTOMACH: SQUAMOUS CELL CARCINOMA, LUNG: TUMOR, MAMMARY GLAND: TUMOR, UTERUS: TUMOR, Tumor Site: Type of Lesion: FORESTOMACH: SQUAMOUS CELL CARCINOMA, LUNG: TUMOR, MAMMARY GLAND: TUMOR, UTERUS: TUMOR): active; positive
carcinogen call (Species: RAT, Strain/Sex: F344/FEMALE, Route: GAVAGE, Dose: 0, 17.5 MG/ML IN 0.2 ML ETHYL ACETATE AND CORN OIL 2/WK FOR 50 WK (STUDY DURATION: LIFESPAN), Tumor Site: Type of Lesion: FORESTOMACH: TUMOR, LUNG: TUMOR, MAMMARY GLAND: TUMOR, UTERUS: TUMOR, Tumor Site: Type of Lesion: FORESTOMACH: TUMOR, LUNG: TUMOR, MAMMARY GLAND: TUMOR, UTERUS: TUMOR): active; positive
carcinogen call (Species: RAT, Strain/Sex: F344/MALE, Route: GAVAGE, Dose: 0, 17.5 MG/ML (TOTAL DOSE 0; 2 MMOL) IN 2 ML ETHYL ACETATE AND CORN OIL (1:2) 2/WK FOR 50 WK (STUDY DURATION: LIFETIME), Dose: 0, 17.5 MG/ML (TOTAL DOSE 0; 2 MMOL) IN 2 ML ETHYL ACETATE AND CORN OIL (1:2) 2/WK FOR 50 WK (STUDY DURATION: LIFETIME), Tumor Site: Type of Lesion: FORESTOMACH: SQUAMOUS CELL CARCINOMA, LUNG: TUMOR, BODY CAVITY: MESOTHELIOMA, Tumor Site: Type of Lesion: FORESTOMACH: SQUAMOUS CELL CARCINOMA, LUNG: TUMOR, BODY CAVITY: MESOTHELIOMA): active; positive
carcinogen call (Species: RAT, Strain/Sex: F344/MALE, Route: GAVAGE, Dose: 0, 17.5 MG/ML IN 0.2 ML ETHYL ACETATE AND CORN OIL 2/WK FOR 50 WK (STUDY DURATION: LIFESPAN), Tumor Site: Type of Lesion: FORESTOMACH: TUMOR, LUNG: TUMOR, PERITONEUM: MESOTHELIOMA, SKIN: TUMOR, Tumor Site: Type of Lesion: FORESTOMACH: TUMOR, LUNG: TUMOR, PERITONEUM: MESOTHELIOMA, SKIN: TUMOR): active; positive

CON(C)C(=O)Nc1ccc(Cl)c(Cl)c1
carcinogen call (Species: Mouse, Strain/Sex: CD-1/Female (80/Group), Route: Oral, Dose: 0, 50, 150, 1500 ppm of 97% linuron in diet for 24 mo, study duration 24 mo, Dose: 0, 50, 150, 1500 ppm of 97% linuron in diet for 24 mo, study duration 24 mo, Tumor Site: Type of Lesion: Liver: hepatocellular adenomas (high dose only)): active; positive
carcinogen call (Species: Mouse, Strain/Sex: CD-1/Male (80/Group), Route: Oral, Dose: 0, 50, 150, 1500 ppm of 97% linuron in diet for 24 mo, study duration 24 mo, Dose: 0, 50, 150, 1500 ppm of 97% linuron in diet for 24 mo, study duration 24 mo): inactive; negative
carcinogen call (Species: Rat, Strain/Sex: Charles River CD/Female (70/Group), Route: Oral, Dose: 0, 50, 125, 625 ppm 97% linuron in diet for 24 mo, study duration 24 mo, Dose: 0, 50, 125, 625 ppm 97% linuron in diet for 24 mo, study duration 24 mo): inactive; negative
carcinogen call (Species: Rat, Strain/Sex: Charles River CD/Male (70/Group), Route: Oral, Dose: 0, 50, 125, 625 ppm 97% linuron in diet for 24 mo, study duration 24 mo, Dose: 0, 50, 125, 625 ppm 97% linuron in diet for 24 mo, study duration 24 mo, Tumor Site: Type of Lesion: Testes: Interstitial cell adenoma): active; positive
carcinogen call (Species: Rat, Strain/Sex: Crl:CD (SD)BR /Male (25/Group), Route: Oral, Dose: 0 (control diet), control diet for 18 mo followed by 625 ppm linuron for 6 mo, control diet for 1 yr followed by 625 ppm, Dose: 0 (control diet), control diet for 18 mo followed by 625 ppm linuron for 6 mo, control diet for 1 yr followed by 625 ppm, Tumor Site: Type of Lesion: Testes: interstitial cell tumors (0/25, 2/25 (6-mo. feed), 6/25 (12 mo feed))): active; positive

CC(=O)Nc1ccc(-c2ccc(NC(C)=O)cc2)cc1
carcinogen call (Species: RAT, Route: INTRAPERITONEAL, Tumor Site: Type of Lesion: EAR (CANAL), MAMMARY GLAND, INTEGUMENTARY SYSTEM (SKIN), Tumor Site: Type of Lesion: EAR (CANAL), MAMMARY GLAND, INTEGUMENTARY SYSTEM (SKIN)): active; positive
carcinogen call (Species: RAT, Route: ORAL, Tumor Site: Type of Lesion: EAR (CANAL)): active; positive
carcinogen call (Species: RAT, Route: SUBCUTANEOUS, Tumor Site: Type of Lesion: MAMMARY GLAND, LIVER, EAR (ZYMBAL GLAND), Tumor Site: Type of Lesion: MAMMARY GLAND, LIVER, EAR (ZYMBAL GLAND)): active; positive

CC(=NC#N)N(C)Cc1ccc(Cl)nc1
carcinogen call (Species: Mouse, Strain/Sex: Crl:CD-1 (ICR)BR/Female, Route: Oral, Dose: 0, 130, 400, 1200 ppm (0; 25; 76; 215 mg/kg/day) in feed for 18 mo, Dose: 0, 130, 400, 1200 ppm (0; 25; 76; 215 mg/kg/day) in feed for 18 mo): inactive; negative
carcinogen call (Species: Mouse, Strain/Sex: Crl:CD-1 (ICR)BR/Male, Route: Oral, Dose: 0, 130, 400, 1200 ppm (0; 20; 66; 186 mg/kg/day) in feed for 18 mo, Dose: 0, 130, 400, 1200 ppm (0; 20; 66; 186 mg/kg/day) in feed for 18 mo): inactive; negative
carcinogen call (Species: Rat, Strain/Sex: Crl:CD BR/Female, Route: Oral, Dose: 0, 160, 400, 1000 ppm (0; 8.8; 22.6; 60.0 mg/kg/day) in feed for 2 yr, Dose: 0, 160, 400, 1000 ppm (0; 8.8; 22.6; 60.0 mg/kg/day) in feed for 2 yr): inactive; negative
carcinogen call (Species: Rat, Strain/Sex: Crl:CD BR/Male, Route: Oral, Dose: 0, 160, 400, 1000 ppm (0; 7.1; 17.5; 46.4 mg/kg/day) in feed for 2 yr, Dose: 0, 160, 400, 1000 ppm (0; 7.1; 17.5; 46.4 mg/kg/day) in feed for 2 yr): inactive; negative
